BigSolDB 2.1

O=C1Cc2ccccc2N1
Settings	solubility (mole fraction)
in 1,4-dioxane, 287.15 K	0.276
in 1,4-dioxane, 292.15 K	0.309
in 1,4-dioxane, 296.15 K	0.336
in 1,4-dioxane, 300.15 K	0.363
in 1,4-dioxane, 304.15 K	0.394
in 1,4-dioxane, 308.65 K	0.421
in 1,4-dioxane, 311.65 K	0.448
in 1,4-dioxane, 315.35 K	0.475
in 1,4-dioxane, 319.05 K	0.502
in 1,4-dioxane, 323.15 K	0.529
in 1,4-dioxane, 328.15 K	0.567
in THF, 293.85 K	0.0116
in THF, 298.65 K	0.0133
in THF, 302.95 K	0.0155
in THF, 307.25 K	0.0181
in THF, 312.55 K	0.021
in THF, 317.05 K	0.0243
in THF, 321.35 K	0.0276
in THF, 327.35 K	0.0327
in THF, 333.95 K	0.0397
in acetone, 288.15 K	0.0498
in acetone, 294.05 K	0.0602
in acetone, 299.35 K	0.0707
in acetone, 304.55 K	0.0812
in acetone, 309.65 K	0.0919
in acetone, 314.45 K	0.102
in acetone, 319.55 K	0.112
in acetone, 325.55 K	0.122
in acetone, 328.25 K	0.127
in acetonitrile, 287.15 K	0.0508
in acetonitrile, 292.15 K	0.0628
in acetonitrile, 296.15 K	0.0748
in acetonitrile, 300.15 K	0.0869
in acetonitrile, 304.15 K	0.101
in acetonitrile, 308.65 K	0.123
in acetonitrile, 311.65 K	0.146
in acetonitrile, 315.35 K	0.171
in acetonitrile, 319.05 K	0.196
in acetonitrile, 323.15 K	0.227
in acetonitrile, 328.15 K	0.285
in dichloromethane, 288.15 K	0.0353
in dichloromethane, 292.15 K	0.0383
in dichloromethane, 296.15 K	0.0419
in dichloromethane, 300.15 K	0.0452
in dichloromethane, 304.15 K	0.0485
in dichloromethane, 308.65 K	0.0519
in dichloromethane, 311.65 K	0.0552
in ethanol, 291.95 K	0.00842
in ethanol, 297.95 K	0.0134
in ethanol, 302.95 K	0.0186
in ethanol, 307.65 K	0.0253
in ethanol, 312.55 K	0.0324
in ethanol, 318.05 K	0.0458
in ethanol, 322.65 K	0.0568
in ethanol, 327.95 K	0.0742
in ethanol, 332.65 K	0.0952
in ethyl acetate, 287.15 K	0.141
in ethyl acetate, 292.15 K	0.156
in ethyl acetate, 296.15 K	0.169
in ethyl acetate, 300.15 K	0.184
in ethyl acetate, 304.15 K	0.198
in ethyl acetate, 308.65 K	0.215
in ethyl acetate, 311.65 K	0.233
in ethyl acetate, 315.35 K	0.247
in ethyl acetate, 319.05 K	0.27
in ethyl acetate, 323.15 K	0.287
in ethyl acetate, 328.15 K	0.32
in isopropanol, 291.95 K	0.00673
in isopropanol, 297.95 K	0.00919
in isopropanol, 303.05 K	0.0122
in isopropanol, 308.35 K	0.0155
in isopropanol, 313.15 K	0.0192
in isopropanol, 317.45 K	0.0232
in isopropanol, 322.15 K	0.0287
in isopropanol, 328.35 K	0.0355
in isopropanol, 333.35 K	0.0443
in methanol, 291.95 K	0.00441
in methanol, 297.95 K	0.00563
in methanol, 302.95 K	0.00688
in methanol, 307.65 K	0.00821
in methanol, 312.55 K	0.00977
in methanol, 317.45 K	0.0119
in methanol, 322.15 K	0.0137
in methanol, 327.35 K	0.0163
in methanol, 332.35 K	0.019
in n-butanol, 293.85 K	0.00297
in n-butanol, 298.65 K	0.00379
in n-butanol, 302.95 K	0.00468
in n-butanol, 307.25 K	0.00546
in n-butanol, 312.55 K	0.00674
in n-butanol, 317.05 K	0.00793
in n-butanol, 321.35 K	0.00952
in n-butanol, 327.35 K	0.0115
in n-butanol, 333.95 K	0.0143
in n-propanol, 293.15 K	0.0387
in n-propanol, 299.35 K	0.0476
in n-propanol, 303.05 K	0.0523
in n-propanol, 308.35 K	0.0599
in n-propanol, 313.15 K	0.0677
in n-propanol, 317.05 K	0.0744
in n-propanol, 320.75 K	0.0814
in n-propanol, 328.35 K	0.0976
in n-propanol, 333.35 K	0.109
in toluene, 291.95 K	0.00318
in toluene, 297.95 K	0.00526
in toluene, 302.95 K	0.00796
in toluene, 307.65 K	0.0121
in toluene, 312.55 K	0.018
in toluene, 317.45 K	0.0258
in toluene, 322.15 K	0.0389
in toluene, 327.35 K	0.0615
in toluene, 332.05 K	0.0848
